For data set [1], the system named is Leishmania infantum. Description: Drug localization in Leishmania infantum MCAN/ES/89/IPZ229/1/89 promastigotes after 24 hrs by fluorescence microscopic method. It is filed as ADME. The following applies: in vivo.
In data set [2] the test system is Leishmania infantum. Briefly: Drug localization in Leishmania infantum MCAN/ES/89/IPZ229/1/89 promastigotes flagellum after 4 hrs by fluorescence microscopic method. The following applies: in vivo. It counts as ADME.
Data set [3] is described as follows: Stability assessed as Tritirachium album proteinase K- mediated compound degradation by measuring half life at 100 uM by HPLC method. It is filed as ADME. The following applies: parengyodontium album.
The subject of data set [4] is Leishmania infantum. Briefly: Antileishmanial activity against Leishmania infantum MCAN/ES/89/IPZ229/1/89 promastigotes assessed as induction of cell death at 25 uM after 24 hrs by propidium iodide staining based flow cytometry. It counts as functional. In general terms: Flow cytometry measures light scatter and fluorescence of single cells or particles in a stream.

Data set [5] has as its target T1, Trypanothione reductase (Leishmania infantum, UniProt A4HSF7). Description: Inhibition of recombinant Leishmania infantum TryR preincubated for 10 mins followed by T[S]2 substrate addition and measured after 1 hr in presence of NADPH.
The test system of data set [6] is Leishmania infantum. Briefly: Antileishmanial activity against Leishmania infantum axenic amastigotes assessed as induction of cell death at 25 uM after 24 hrs by propidium iodide staining based flow cytometry. It counts as functional.
For data set [7], the target named is T1, Trypanothione reductase. Description: Inhibition of recombinant His/FLAG-tagged Leishmania infantum TryR dimerization assessed as dimer disruption after 1 hr by ELISA. Background: In an ELISA, binding on a coated surface is turned into a signal by an enzyme label.

SMILES strings stand for the structures. Activity calls are given as the source filed them. The rule behind the calls is not given here. Bridge positions count the residues as written; N and C are the ends. Square brackets hold non-standard residues; d marks the D form. Peptide text beside a SMILES is read from it. ξ: configuration not given here. ξNle = CCCCC(N)C(=O)O

T1 sequence (A4HSF7 whole entry): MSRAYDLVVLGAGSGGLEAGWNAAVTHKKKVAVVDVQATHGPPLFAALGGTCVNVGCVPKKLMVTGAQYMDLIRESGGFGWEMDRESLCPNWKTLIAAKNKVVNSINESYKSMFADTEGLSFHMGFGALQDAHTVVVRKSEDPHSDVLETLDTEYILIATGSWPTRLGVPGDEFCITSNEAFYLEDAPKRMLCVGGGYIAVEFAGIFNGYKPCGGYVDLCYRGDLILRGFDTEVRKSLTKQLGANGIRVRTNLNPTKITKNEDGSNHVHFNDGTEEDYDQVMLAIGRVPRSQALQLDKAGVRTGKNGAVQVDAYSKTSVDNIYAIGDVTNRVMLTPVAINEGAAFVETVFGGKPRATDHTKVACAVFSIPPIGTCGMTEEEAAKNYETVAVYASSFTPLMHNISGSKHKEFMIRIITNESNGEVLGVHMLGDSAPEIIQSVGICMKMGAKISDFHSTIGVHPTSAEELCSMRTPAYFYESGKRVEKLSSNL

`CCCCC(NC(=O)[C@H](CCCCN)NC(=O)C(CCCC)NC(=O)[C@H](CO)NC(=O)[C@@H](NC(=O)CNC(=O)[C@@H](NC(=O)[C@H](CO)NC(=O)[C@H](CCC(N)=O)NC(=O)[C@@H](NC(=O)[C@@H](NC(=O)[C@H](CCCCN)NC(=O)[C@@H]1CCCN1C(=O)COCCOCCNC(=S)Nc1ccc(-c2c3ccc(=O)cc-3oc3cc(O)ccc23)c(C(=O)O)c1)[C@@H](C)CC)[C@@H](C)CC)C(C)C)[C@@H](C)CC)C(=O)N[C@H](CCCNC(=N)N)NC(=O)[C@H](CCCNC(=N)N)NC(=O)[C@H](CCCNC(=N)N)NC(=O)[C@H](CCCNC(=N)N)NC(=O)[C@H](CCCNC(=N)N)NC(=O)[C@H](CCCNC(=N)N)NC(=O)[C@H](CCCNC(=N)N)NC(=O)[C@H](CCCNC(=N)N)NC(=O)[C@@H](N)CCCNC(=N)N` (some centres undefined): the Drug uptake entry in data set [1] and in data set [2] was “Active” in each case.

Turning to `CCCCC(NC(=O)[C@H](CCCCN)NC(=O)C(CCCC)NC(=O)[C@H](CO)NC(=O)[C@@H](NC(=O)CNC(=O)[C@@H](NC(=O)[C@H](CO)NC(=O)[C@H](CCC(N)=O)NC(=O)[C@@H](NC(=O)[C@@H](NC(=O)[C@H](CCCCN)NC(=O)[C@@H]1CCCN1C(C)=O)[C@@H](C)CC)[C@@H](C)CC)C(C)C)[C@@H](C)CC)C(N)=O` (some centres undefined), in data set [3], the half-life at 100 µM was 23 min. Moreover, the outcome in data set [4] and in data set [6] was inactive. For the same compound, the IC50 was 1.2 µM in data set [5] and 13.5 µM in data set [7].

As to `CC[C@H](C)[C@H](NC(=O)CNC(=O)[C@@H]1CCCCNC(=O)CC[C@H](NC(=O)[C@H](CCCCN)NC(=O)[C@@H]2CCCN2C(C)=O)C(=O)N[C@@H]([C@@H](C)CC)C(=O)N[C@@H](CCC(N)=O)C(=O)N[C@@H](CO)C(=O)N1)C(N)=O` (Ac-PKEIQSKGI-NH2; lactam 3-7), the result in data set [4] and in data set [6] was inactive. Further, the IC50 in data set [5] and in data set [7] was more than 75 µM in each case.

Consider `CCCCC(NC(=O)[C@H](CCCCN)NC(=O)C(CCCC)NC(=O)[C@H](CO)NC(=O)[C@@H](NC(=O)CNC(=O)[C@@H]1CCCCNC(=O)CC[C@H](NC(=O)[C@H](CCCCN)NC(=O)[C@@H]2CCCN2C(C)=O)C(=O)N[C@@H]([C@@H](C)CC)C(=O)N[C@@H](CCC(N)=O)C(=O)N[C@@H](CO)C(=O)N1)[C@@H](C)CC)C(N)=O` (some centres undefined) (Ac-PKEIQSKGIS[ξNle]K[ξNle]-NH2; lactam 3-7), for which the half-life at 100 µM in data set [3] came to 52 min. Further, the outcome in data set [4] and in data set [6] was inactive. In addition, the IC50 in data set [5] was found to be 0.9 µM; in data set [7], 9.9 µM.

For the compound `CCCCC(NC(=O)[C@H](CCCCN)NC(=O)[C@@H]1CCCCNC(=O)CC[C@H](NC(=O)[C@H](CO)NC(=O)[C@H](CCC(N)=O)NC(=O)[C@@H](NC(=O)[C@@H](NC(=O)[C@H](CCCCN)NC(=O)[C@@H]2CCCN2C(C)=O)[C@@H](C)CC)[C@@H](C)CC)C(=O)NCC(=O)N[C@@H]([C@@H](C)CC)C(=O)N[C@@H](CO)C(=O)N1)C(N)=O` (some centres undefined) (Ac-PKIIQSEGISKK[ξNle]-NH2; lactam 7-11), the outcome in data set [4] and in data set [6] was inactive. The IC50 in data set [5] and in data set [7] was more than 75 µM each time.

For the compound `CCCCC(NC(=O)[C@H](CCCCN)NC(=O)C(CCCC)NC(=O)[C@H](CO)NC(=O)[C@@H](NC(=O)[C@@H]1CCCCNC(=O)CC[C@H](NC(=O)[C@@H](NC(=O)[C@H](CCCCN)NC(=O)[C@@H]2CCCN2C(C)=O)[C@@H](C)CC)C(=O)N[C@@H](CCC(N)=O)C(=O)NC(CO)C(=O)N[C@@H](C(C)C)C(=O)N1)[C@@H](C)CC)C(N)=O` (single isomer, unassigned), in data set [3], the half-life at 100 µM turned out to be 64 min. The result in data set [4] and in data set [6] was inactive. Moreover, the half-inhibitory concentration (IC50) in data set [5] is 5.3 µM; in data set [7], 14.4 µM.

Take `CC[C@H](C)[C@H](NC(=O)[C@@H]1CCCCNC(=O)CC[C@H](NC(=O)[C@@H](NC(=O)[C@H](CCCCN)NC(=O)[C@@H]2CCCN2C(C)=O)[C@@H](C)CC)C(=O)N[C@@H](CCC(N)=O)C(=O)NC(CO)C(=O)N[C@@H](C(C)C)C(=O)N1)C(N)=O` (single isomer, unassigned): the result in data set [4] and in data set [6] was inactive. The IC50 in data set [5] and in data set [7] was more than 75 µM in each case.

As a reminder, the half-life is how long it takes for the measured level to halve. Broadly, the IC50 is the concentration at which inhibition is half-maximal.

These data come from ChEMBL document CHEMBL4052619, “First example of peptides targeting the dimer interface of Leishmania infantum trypanothione reductase with potent in vitro antileishmanial activity” (Eur J Med Chem, 2017).
